Laboratory results: publication PMC7190660, “Standardised comparison of limonene-derived monoterpenes identifies structural determinants of anti-inflammatory activity” (Scientific Reports, 2020)
Values joined by “and” are separate entries in the source; they are usually repeats but may differ in a detail not shown here. Equal entries are not always repeated.

Columns and labels:
[1] = tested on: Raw 264.7 cells; assay: Cytotoxicity by resazurin reduction assay in Raw 264.7 cells; type: cell-based, mouse; details: viability not decreased by more than 30% relative to LPS alone (ISO 10993-5), LPS 1 µg/mL 18 h
Procedure: Various concentrations of the test compounds, in the absence or presence of LPS, were first evaluated for cytotoxicity using the resazurin reduction assay[26]
(§1) Raw 264.7 cells were plated at a density of 3 × 10^5 cells/mL and left to stabilize for up to 24 h.
Resazurin is a redox dye used as an indicator of cellular metabolic activity for various applications, namely cell viability, proliferation and toxicity. The assay is based on the intracellular reduction of the non-fluorescent resazurin to resorufin (a fluorescent and pink coloured compound) by mitochondrial or microsomal enzymes that use NADH or NADPH as electron sources. Since only metabolically active cells can reduce the dye, the increase in fluorescence or absorbance is directly proportional to the number of viable cells[26],[50].
To select non-cytotoxic concentrations of the test compounds, the resazurin solution was added to each well to a final concentration of 50 µM, 90 min before the end of the treatment period indicated in the figure legends. Then, absorbances at 570 nm and 620 nm (reference wavelength) were read in a Biotek Synergy HT plate reader (Biotek, Winooski, VT, USA).

[2] = tested on: LPS-induced NO production in Raw 264.7 macrophages; assay: Primary screening: LPS-induced NO production (nitrite, Griess reaction) in Raw 264.7 macrophages; type: cell-based, mouse; details: for IC50: Mus musculus, RAW264.7, Raw 264.7 cell line; for Decrease (inhibition) of LPS-induced NO production: at the highest concentration tested; for % inhibition of LPS-induced NO production: at the highest non-cytotoxic concentration tested, nitrite in supernatants; for Effect on LPS-induced NO production / anti-inflammatory activity (in words): non-cytotoxic concentrations
Procedure: as §1
This vehicle was used as control. Lipopolysaccharides from Escherichia coli 026:B6 (LPS; Sigma-Aldrich Co.) were dissolved in phosphate buffered saline (PBS). Recombinant human interleukin-1β (IL-1β; Peprotech, Rocky Hill, NJ, USA) was dissolved in PBS containing 0.1% Bovine Serum Albumin.
NO production was measured as the amount of nitrite accumulated in the culture supernatants using the Griess reaction which is based in the reaction of nitrite with sulfanilamide under acidic conditions, yielding a diazonium ion that couples to N-(1-napthtyl)ethylenediamine dihydrochloride to form a water-soluble red-violet azo dye that absorbs at 550 nm[51]. Briefly, equal volumes of culture supernatants and reagents [equal volumes of 1% (w/v) sulphanilamide in 5% (v/v) phosphoric acid and 0.1% (w/v) N-(1-napthtyl)ethylenediamine dihydrochloride] were mixed and incubated for 10 min, at room temperature, in the dark. The concentration of nitrite accumulated in the culture supernatants was calculated by interpolation of the absorbance of each sample, read in Biotek Synergy HT plate reader (Biotek), in a standard curve of sodium nitrite.

[3] = tested on: human chondrocytes; assay: IL-1β-induced NOS2 protein, NO production and pro-IL-1β protein in primary human chondrocytes; type: cell-based; details: IL-1β 10 ng/mL 24 h, carvone 666 or 1331 µM, Bay 11-7082 5 µM
Procedure: The cells were treated with 10 ng/mL IL-1β for 24 h (a, b, c and d), following pre-treatment for 1 h with 666 or 1331 µM of (S)-(+)-carvone (4). As a positive control, the cells were similarly treated with 5 μM Bay 11-7082 (b and c). Control cells (Ctrl) were treated with the vehicle (0.1% DMSO) in the absence of IL-1β. Each column represents the mean ± SEM of, at least, three independent experiments. The blots shown are representative of, at least, three independent experiments and are cropped for clarity and conciseness.
Briefly, cartilage shavings underwent sequential digestion with Pronase (Roche, Indianapolis, IN, USA) and collagenase A (Roche, Indianapolis, IN, USA). To avoid chondrocyte dedifferentiation, non-proliferating monolayer cultures were setup by plating 1× 10^6 chondrocytes/mL in HAM: F12 medium containing 3% antibiotics and 5% FBS and allowed to recover for 24 h at 37 °C in a humidified atmosphere with 5% CO2. Prior to any treatments, chondrocytes were serum-starved overnight and thereafter maintained in culture medium without FBS.
This vehicle was used as control. […] Recombinant human interleukin-1β (IL-1β; Peprotech, Rocky Hill, NJ, USA) was dissolved in PBS containing 0.1% Bovine Serum Albumin.
Total cell extracts were prepared and western blot was performed as described before[54]. […] Immune complexes were detected with Enhanced ChemiFluorescence reagent (GE Healthcare) in the imaging system Thyphoon FLA 9000 (GE Healthcare). The membranes were reprobed with a mouse monoclonal anti-β-Tubulin I antibody (Sigma-Aldrich Co.), diluted at 1:20000, as a loading control, for 1 h at room temperature. Image analysis was performed with TotalLab TL120 software (Nonlinear Dynamics Ltd).

[4] = tested on: NOS2; assay: LPS-induced NOS2 mRNA (qRT-PCR) and protein (western blot) in Raw 264.7; type: cell-based, mouse; details: 1 h pre-treatment, Bay 11-7082 5 μM
Procedure: Macrophage cultures were treated with 1 µg/mL LPS, for 6 h (a) or 18 h (b), following pre-treatment for 1 h with 666 µM of each test compound (a) or with the concentrations indicated in (b). […] Control cells (Ctrl) were treated with the vehicle (0.1% DMSO) in the absence of LPS. Each column represents the mean ± SEM of four independent experiments. The blots shown are representative of, at least, three independent experiments and are cropped for clarity and conciseness.
Total RNA extraction and qRT-PCR were performed as described before[52]. Briefly, total RNA was extracted using the NZYol (NZYTECH, Lisbon, Portugal) and quantified in a NanoDrop ND-1000 spectrophotometer at 260 nm. RNA purity was assessed by analysis of 260/230 and 260/280 absorption ratios. The cDNA was reverse-transcribed using NZY First Strand cDNA Synthesis Kit (NZYTECH), beginning with 2 µg of total RNA. qRT-PCR was performed, in duplicate for each sample, using NZYSpeedy qPCR Green Master Mix (2×) (NZYTECH) on CFX96 Real-Time PCR Detection System (Bio-Rad, Hercules, CA, USA).
Gene expression changes were analysed using the built-in CFX Manager software which enables the analysis of the results by the Pfaffl method, a variation of the ΔΔCT method corrected for gene-specific efficiencies[53]. The results were normalized using Hprt1 as housekeeping gene.
Total cell extracts were prepared and western blot was performed as described before[54]. Briefly, total (25 µg for Raw 264.7 cell line and 20 µg for human chondrocytes) proteins were separated by SDS-PAGE under reducing conditions and electrotransferred onto PVDF membranes. […] Immune complexes were detected with Enhanced ChemiFluorescence reagent (GE Healthcare) in the imaging system Thyphoon FLA 9000 (GE Healthcare). The membranes were reprobed with a mouse monoclonal anti-β-Tubulin I antibody (Sigma-Aldrich Co.), diluted at 1:20000, as a loading control, for 1 h at room temperature. Image analysis was performed with TotalLab TL120 software (Nonlinear Dynamics Ltd).

Row | SMILES | Highest non-cytotoxic concentration tested [1] | IC50 [2] | Decrease (inhibition) of LPS-induced NO production ([2]; Raw 264.7) | % inhibition of LPS-induced NO production ([2]; Raw 264.7) | Effect on LPS-induced NO production / anti-inflammatory activity (in words) ([2]; Raw 264.7) | further results
1 | C=C(C)[C@@H]1CCC(C)C(=O)C1 (single isomer, unassigned; (+)) [(+)-dihydrocarvone (7), (+)-dihydrocarvone] | 2628 µM and 400 µg/mL | 1.47 mM and 224 µg/mL | greater than 30% | 73.57 ± 2.81 % ± SEM |  | 
2 | C=C(C)[C@@H]1CC=C(C)C(O)C1 (single isomer, unassigned; (-)) [(−)-carveol (6), (−)-carveol] | 2628 µM and 400 µg/mL | 2 mM and 304 µg/mL | greater than 30% | 52.30 ± 5.54 % ± SEM |  | 
3 | C=C(C)[C@@H]1CC[C@](C)(O)[C@@H](O)C1 [(1 S,2 S,4 R)-(+)-limonene-1,2-diol (3), (1 S,2 S,4 R)-(+)-limonene-1,2-diol] | 2349 µM and 400 µg/mL |  | less than 20% | 13.90 ± 2.03 % ± SEM | inactive | 
4 | C=C(C)[C@H]1CC[C@H](C)[C@@H](O)C1 [(+)-dihydrocarveol (8), (+)-dihydrocarveol] | 1297 µM and 200 µg/mL | 532 µM and 82.1 µg/mL | greater than 30% | 71.03 ± 2.28 % ± SEM |  | 
5 | C=C(C)[C@H]1CC[C@H](C)C[C@@H]1O [(+)-isopulegol (10), (+)-isopulegol] | 2593 µM and 400 µg/mL |  |  | −18.47 ± 5.65 % ± SEM | inactive | Effect on LPS-induced NO production / anti-inflammatory activity (in words) ([2]; Raw 264.7, listed as 10): no effect
6 | CC1=CC[C@@H](C(C)(C)O)CC1=O [(R)-8-hydroxycarvotanacetone (21), (R)-5-(2-hydroxypropan-2-yl)-2-methylcyclohex-2-en-1-one] | 2378 µM and 400 µg/mL | 842 µM and 142 µg/mL | greater than 30% | 76.25 ± 1.97 % ± SEM | significant activity | 
7 | C=C(C)[C@H]1CC=C(C)CC1 [(R)-(+)-limonene (2), (R)-(+)-limonene] |  |  |  | −1.80 ± 0.55 % ± SEM | inactive | Effect on LPS-induced NO production / anti-inflammatory activity (in words) ([2]; Raw 264.7, listed as 2): no effect
8 | CC(C)=C1CC[C@@H](C)CC1=O [(R)-(+)-pulegone (12), (R)-(+)-pulegone] | 1314 µM and 200 µg/mL |  |  | 7.80 ± 2.98 % ± SEM | inactive | Effect on LPS-induced NO production / anti-inflammatory activity (in words) ([2]; Raw 264.7, listed as 12): no effect
9 | CC1=CC[C@H](C(C)(C)O)CC1=O [(S)-8-hydroxycarvotanacetone (20), (S)-5-(2-hydroxypropan-2-yl)-2-methylcyclohex-2-en-1-one] | 2378 µM and 400 µg/mL | 762 µM and 116 µg/mL | greater than 30% | 78.43 ± 1.60 % ± SEM | significant activity | 
10 | C=C(C)[C@@H]1CC=C(C)CC1 [(S)-(−)-limonene (1), (S)-(−)-limonene] |  |  |  | 11.08 ± 4.65 % ± SEM | inactive | Effect on LPS-induced NO production / anti-inflammatory activity (in words) ([2]; Raw 264.7, listed as 1): no effect
11 | CC(C)=C1CC[C@H](C)CC1=O [(S)-(−)-pulegone (13), (S)-(−)-pulegone] | 2628 µM and 400 µg/mL |  |  | 35.60 ± 4.86 % ± SEM | weak activity | 
12 | C=C(C)[C@@H]1CC[C@@H](C)[C@H](O)C1 [(−)-dihydrocarveol (9), (−)-dihydrocarveol] | 2593 µM and 400 µg/mL | 2.14 mM and 330 µg/mL | greater than 30% | 62.03 ± 8.62 % ± SEM |  | 
13 | C=C(C)[C@@H]1CC[C@@H](C)C[C@H]1O [(−)-isopulegol (11), (−)-isopulegol] | 2593 µM and 400 µg/mL |  |  | −12.63 ± 1.30 % ± SEM | inactive | Effect on LPS-induced NO production / anti-inflammatory activity (in words) ([2]; Raw 264.7, listed as 11): no effect
14 | CC(C)[C@@H]1CC[C@@H](C)C[C@H]1O [(−)-menthol (15), (−)-menthol] | 2560 µM and 400 µg/mL |  |  | −6.90 ± 1.24 % ± SEM | no effect | 
15 | CC(C)[C@@H]1CC[C@@H](C)CC1=O [(−)-menthone (14), (−)-menthone] | 1297 µM and 200 µg/mL |  |  | −9.88 ± 2.85 % ± SEM | no effect | 
16 | Cc1ccc(S(=O)(=O)/C=C/C#N)cc1 [Bay 11-7082, reference compound] |  |  |  |  |  | NO production relative to cells treated with LPS alone ([2]; pre-treatment with 5 μM, Raw 264.7): 48.1 ± 5.2%; IL-1β-induced NO production [3]: significantly decreased; IL-1β-induced NOS2 protein levels [3]: significantly decreased; LPS-induced NOS2 mRNA levels ([4]; LPS 1 µg/mL 6 h, test compounds 666 µM): decreased; LPS-induced NOS2 protein levels ([4]; LPS 1 µg/mL 18 h): decreased
17 | Cc1ccc(C(C)C)cc1O [carvacrol (18), carvacrol] | 33 µM and 5 µg/mL |  | less than 20% | 10.78 ± 1.34 % ± SEM | almost no activity | 
18 | Cc1ccc(C(C)C)cc1 [p-cymene (17), p-cymene] | 37 µM and 5 µg/mL |  | less than 20% | 8.50 ± 5.53 % ± SEM | showed no activity | 
19 | Cc1ccc(C(C)C)c(O)c1 [thymol (19), thymol] | 83 µM and 12.5 µg/mL |  | less than 20% | 8.93 ± 1.91 % ± SEM | showed no activity | 
